Measured values reported in US20260138961A1, “MODULATORS OF MITOCHONDRIAL DNA REPLICATION” (Pretzel Therapeutics, Inc., priority 2022, published 2026).

target: T1, wild type human POLγ (POLγA:WT) (Homo sapiens, UniProt P54098); assay: DNA polymerization assay, wild type POLγ; format: biochemical; settings: 0.1 μM dNTP, read-out: WT AC50 (μM) at 0.1 μM
T1 sequence (P54098 1-1239): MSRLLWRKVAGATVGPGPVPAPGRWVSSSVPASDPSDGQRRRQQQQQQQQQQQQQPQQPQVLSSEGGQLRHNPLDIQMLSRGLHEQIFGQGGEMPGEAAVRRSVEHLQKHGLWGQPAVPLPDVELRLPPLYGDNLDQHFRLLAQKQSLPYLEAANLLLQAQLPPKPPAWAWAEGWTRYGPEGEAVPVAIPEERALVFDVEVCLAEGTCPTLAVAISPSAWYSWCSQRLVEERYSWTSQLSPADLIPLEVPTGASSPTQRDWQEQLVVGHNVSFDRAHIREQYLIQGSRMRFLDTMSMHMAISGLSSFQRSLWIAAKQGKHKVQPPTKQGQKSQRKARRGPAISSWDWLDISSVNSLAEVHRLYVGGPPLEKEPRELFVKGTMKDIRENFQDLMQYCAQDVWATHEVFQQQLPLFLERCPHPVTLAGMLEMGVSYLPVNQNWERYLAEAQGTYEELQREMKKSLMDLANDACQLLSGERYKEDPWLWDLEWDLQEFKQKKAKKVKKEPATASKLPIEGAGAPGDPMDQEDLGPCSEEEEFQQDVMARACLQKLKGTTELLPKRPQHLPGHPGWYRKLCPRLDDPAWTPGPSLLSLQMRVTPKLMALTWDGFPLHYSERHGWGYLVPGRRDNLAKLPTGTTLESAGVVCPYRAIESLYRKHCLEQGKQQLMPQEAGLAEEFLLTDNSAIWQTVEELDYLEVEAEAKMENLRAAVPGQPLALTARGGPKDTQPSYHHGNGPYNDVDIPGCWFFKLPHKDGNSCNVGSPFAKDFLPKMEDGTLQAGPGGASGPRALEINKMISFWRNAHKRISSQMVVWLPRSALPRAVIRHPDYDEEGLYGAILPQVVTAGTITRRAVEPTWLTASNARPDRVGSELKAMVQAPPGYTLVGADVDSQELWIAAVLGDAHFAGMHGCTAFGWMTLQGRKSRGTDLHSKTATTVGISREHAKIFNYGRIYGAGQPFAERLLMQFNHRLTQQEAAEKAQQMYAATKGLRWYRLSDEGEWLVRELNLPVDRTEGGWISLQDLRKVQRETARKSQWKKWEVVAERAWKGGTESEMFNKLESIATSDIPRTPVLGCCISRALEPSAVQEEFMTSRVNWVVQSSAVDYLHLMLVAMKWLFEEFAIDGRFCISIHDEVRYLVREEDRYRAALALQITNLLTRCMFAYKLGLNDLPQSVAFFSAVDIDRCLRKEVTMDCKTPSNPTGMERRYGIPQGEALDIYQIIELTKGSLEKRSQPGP
T1 sequence (Q9UHN1 1-485 partner): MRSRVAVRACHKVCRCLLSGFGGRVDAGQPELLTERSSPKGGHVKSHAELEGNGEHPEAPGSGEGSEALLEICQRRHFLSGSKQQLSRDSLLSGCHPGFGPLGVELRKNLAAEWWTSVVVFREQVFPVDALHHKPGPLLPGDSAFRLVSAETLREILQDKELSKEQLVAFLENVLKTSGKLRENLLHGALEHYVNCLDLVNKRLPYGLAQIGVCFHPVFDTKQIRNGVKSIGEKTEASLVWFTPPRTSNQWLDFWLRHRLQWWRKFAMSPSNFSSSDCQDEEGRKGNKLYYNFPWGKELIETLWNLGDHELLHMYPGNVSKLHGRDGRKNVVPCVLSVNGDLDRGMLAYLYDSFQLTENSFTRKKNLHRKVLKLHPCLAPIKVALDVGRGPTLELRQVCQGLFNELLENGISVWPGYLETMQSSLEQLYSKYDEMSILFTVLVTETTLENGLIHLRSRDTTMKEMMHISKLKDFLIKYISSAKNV
Procedure: DNA Polymerization Assay to Monitor Effects on Human Wildtype POLγ and Four Disease-Causing Mutant Variants of Human POLγ.
The ability of small molecules to stimulate the polymerase activity of POLγ was analyzed in a quantitative fluorescence SYBR Green I assay with fluorescence intensity (FI) readout.
In the presence of dNTPs, wild type human POLγ and mutant derivatives thereof were incubated with single-stranded, circular M13mp18 ssDNA hybridized to a short DNA oligonucleotide that functions as a primer for initiation of DNA synthesis. POLγ and mutant derivatives thereof will extend the primer and use the M13mp18 molecule as a template to synthesize long stretches of double-stranded DNA. SYBR Green I, which is a double-stranded DNA-binding dye, was used to quantify formation of double-stranded DNA in the reaction. When bound to double-stranded DNA, SYBR Green I fluorescence increases by up to 100-fold.
The assay was performed in the 384-well plate format. Upon addition of compounds, changes in double-stranded DNA synthesis activity can be monitored by following effects on fluorescent intensity.
The reactions also contained the accessory POLγB subunit, and the human mitochondrial single-stranded DNA binding protein (mtSSB).
The DNA template mixture used in the assay contained 0.5 nM primed M13 mp18 ssDNA, 400 nM mtSSB, 0.1 mM Tris-HCl (pH 8.0), 0.1 mM dNTP, 10 mM MgCl2, 0.1 mg/mL BSA, 1 mM TCEP solution, and 0.02% Triton X-100. The DNA template mixture for the wild type protein contained either 100 μM dNTP, 1 μM dNTP, or 0.1 μM dNTP, designated in Table 2 as 100 μM, 1 μM, and 0.1 μM, respectfully.
Microplates with compounds (0.1 μL in each well) to be tested in the assay were prepared from 10 mM compound stocks in 100% DMSO, and equal amounts of DMSO without any compound were added to positive and negative control wells.
The protein mixture was dispensed (5 μL into each well) into compound plates and incubated at 37° C. for 15 minutes. After incubation, 5 μL of the DNA template mixture was dispensed into each well. The plates were then incubated at 37° C. for 2 hours.
During incubation, a combined stop buffer and detection reagent solution was prepared. The buffer contained 25 mM EDTA (pH 8.0), 0.02% Triton X-100, and SYBR Green I [Invitrogen] diluted 10,000× (for fluorescent readout). EDTA will stop the enzymatic reaction by chelating magnesium ions.

Structure (SMILES)	AC50 [µM]
Cc1cnc(-c2ccc(Cl)c(NS(=O)(=O)c3cc(C)c(Cl)cc3C)c2)s1 [Example 102, 4-chloro-N-(2-chloro-5-(5-methylthiazol-2-yl)phenyl)-2,5-dimethylbenzenesulfonamide]	5
Cc1cnc(-c2cc(NS(=O)(=O)c3cc(C)c(Cl)cc3C)ccc2C)s1 [Example 103, 4-chloro-2,5-dimethyl-N-(4-methyl-3-(5-methylthiazol-2-yl)phenyl)benzenesulfonamide]	17

same assay, conditions: 100 μM dNTP, read-out: WT AC50 (μM) at 100 μM

Structure (SMILES)	AC50 [µM]
Cc1cc(S(=O)(=O)Nc2cccc(C(=O)N(C)C(C)CO)c2)c(C)cc1Cl (single isomer, unassigned) [Example 14, 3-((4-chloro-2,5-dimethylphenyl)sulfonamido)-N-(1-hydroxypropan-2-yl)-N-methylbenzamide]	> 100
Cc1ccc(C)c(S(=O)(=O)Nc2cccc(C(=O)N3CCCCC3C#N)c2)c1 (centres unmarked) [Example 2, N-(3-(2-cyanopiperidine-1-carbonyl)phenyl)-2,5-dimethylbenzenesulfonamide]	1
Cc1ccc(C)c(S(=O)(=O)Nc2cccc(C(=O)N3CCCCC3)c2)c1 [Example 3, 2,5-dimethyl-N-(3-(piperidine-1-carbonyl)phenyl)benzene sulfonamide]	> 100
Cc1ccc(C)c(S(=O)(=O)Nc2cccc(C(=O)N3CCCC[C@H]3C)c2)c1 [Example 5, (R)-2,5-dimethyl-N-(3-(2-methylpiperidine-1-carbonyl)phenyl)benzenesulfonamide]	5
Cc1ccc(C)c(S(=O)(=O)Nc2cccc(C(=O)N3CCCC[C@@H]3C)c2)c1 [Example 6, (S)-2,5-dimethyl-N-(3-(2-methylpiperidine-1-carbonyl)phenyl)benzenesulfonamide]	4
Cc1ccc(C)c(S(=O)(=O)Nc2cccc(C(=O)N3CCOCC3C#N)c2)c1 (centres unmarked) [Example 7, N-(3-(3-cyanomorpholine-4-carbonyl)phenyl)-2,5-dimethylbenzenesulfonamide]	1
Cc1ccc(C)c(S(=O)(=O)Nc2cccc(C(=O)N[C@@H](C)C3CC3)c2)c1 [Example 8, (S)-N-(1-cyclopropylethyl)-3-((2,5-dimethylphenyl)sulfonamido)benzamide]	5
Cc1cc(S(=O)(=O)Nc2cccc(C(=O)N3CCCC[C@H]3C)c2)c(C)cc1Cl [Example 9, (R)-4-chloro-2,5-dimethyl-N-(3-(2-methylpiperidine-1-carbonyl)phenyl)benzenesulfonamide]	2
Cc1cc(S(=O)(=O)Nc2cccc(C(=O)N3CCC[C@H]3C)c2)c(C)cc1Cl [Example 10, (R)-4-chloro-2,5-dimethyl-N-(3-(2-methylpyrrolidine-1-carbonyl)phenyl)benzenesulfonamide]	0.5
Cc1cc(S(=O)(=O)Nc2cccc(C(=O)NCc3ccccc3)c2)c(C)cc1Cl [Example 11, N-benzyl-3-((4-chloro-2,5-dimethylphenyl)sulfonamido)benzamide]	29
Cc1cc(S(=O)(=O)Nc2cccc(C(=O)N(C)C)c2)c(C)cc1Cl [Example 12, 3-((4-chloro-2,5-dimethylphenyl)sulfonamido)-N,N-dimethylbenzamide]	5
Cc1cc(S(=O)(=O)Nc2cc(F)cc(C(=O)N3CCC[C@H]3C)c2)c(C)cc1Cl [Example 13, (R)-4-chloro-N-(3-fluoro-5-(2-methylpyrrolidine-1-carbonyl)phenyl)-2,5-dimethylbenzenesulfonamide]	1
Cc1cc(S(=O)(=O)Nc2cccc(-c3nccs3)c2)c(C)cc1Cl [Example 16, 4-chloro-2,5-dimethyl-N-(3-(thiazol-2-yl)phenyl)benzenesulfonamide]	0.2
Cc1cc(S(=O)(=O)Nc2cccc(-c3ncco3)c2)c(C)cc1Cl [Example 17, 4-chloro-2,5-dimethyl-N-(3-(oxazol-2-yl)phenyl)benzenesulfonamide]	0.6
Cc1cc(S(=O)(=O)Nc2cccc(-c3ccn(C)n3)c2)c(C)cc1Cl [Example 18, 4-chloro-2,5-dimethyl-N-(3-(1-methyl-1H-pyrazol-3-yl)phenyl)benzenesulfonamide]	1
Cc1cc(S(=O)(=O)Nc2cccc(-c3nccn3C)c2)c(C)cc1Cl [Example 19, 4-chloro-2,5-dimethyl-N-(3-(1-methyl-1H-imidazol-2-yl)phenyl)benzenesulfonamide]	0.8
Cc1cc(S(=O)(=O)Nc2cccc(-c3ncc(C(N)=O)s3)c2)c(C)cc1Cl [Example 92, 2-(3-((4-chloro-2,5-dimethylphenyl)sulfonamido)phenyl) thiazole-5-carboxamide]	> 10
CNC(=O)c1cnc(-c2cccc(NS(=O)(=O)c3cc(C)c(Cl)cc3C)c2)s1 [Example 93, 2-(3-((4-chloro-2,5-dimethylphenyl)sulfonamido)phenyl)-N-methylthiazole-5-carboxamide]	3
Cc1cc(S(=O)(=O)Nc2cccc(-c3ncc(C#N)s3)c2)c(C)cc1Cl [Example 96, 4-chloro-N-(3-(5-cyanothiazol-2-yl)phenyl)-2,5-dimethylbenzenesulfonamide]	> 10
Cc1cnc(-c2ccc(C)c(NS(=O)(=O)c3cc(C)c(Cl)cc3C)c2)s1 [Example 98, 4-chloro-2,5-dimethyl-N-(2-methyl-5-(5-methylthiazol-2-yl)phenyl)benzenesulfonamide]	> 10
Cc1cnc(-c2ccc(Cl)c(NS(=O)(=O)c3cc(C)c(Cl)cc3C)c2)s1 [Example 102, 4-chloro-N-(2-chloro-5-(5-methylthiazol-2-yl)phenyl)-2,5-dimethylbenzenesulfonamide]	> 10
Cc1cnc(-c2cc(NS(=O)(=O)c3cc(C)c(Cl)cc3C)ccc2C)s1 [Example 103, 4-chloro-2,5-dimethyl-N-(4-methyl-3-(5-methylthiazol-2-yl)phenyl)benzenesulfonamide]	1
Cc1cc(S(=O)(=O)N[C@@H]2CCCN(C(=O)[C@@H]3CCCN3C)C2)c(C)cc1Cl [Example 104, 4-chloro-2,5-dimethyl-N-((R)-1-(methyl-L-prolyl)piperidin-3-yl)benzenesulfonamide]	> 10
Cc1cc(S(=O)(=O)Nc2cccc(C(=O)N3CCCC4(CC4)C3)c2)c(C)cc1Cl [Example 105, N-(3-(5-azaspiro[2.5]octane-5-carbonyl)phenyl)-4-chloro-2,5-dimethylbenzenesulfonamide]	> 10
